Data from patent publication US20060089499A1, “Pyrazolopyrimidines and the use thereof for controlling harmful organisms” (priority 2002, published 2006).

Tests used:
Venturia inaequalis = assay: Venturia test (apple)/protective; format: in vivo; settings: topical, 240 h, protective, application rate 100 g/ha, evaluation 10 days after inoculation, read-out: Efficacy in %
Description: Venturia Test (Apple)/Protective [table] To produce a suitable preparation of active compound, 1 part by weight of active compound is mixed with the stated amounts of solvent and emulsifier, and the concentrate is diluted with water to the desired concentration. To test for protective activity, young plants are sprayed with the preparation of active compound at the stated application rate. After the spray coating has dried on, the plants are inoculated with an aqueous conidia suspension of the apple scab pathogen Venturia inaequalis and then remain in an incubation cabin at about 20° C. and 100% relative atmospheric humidity for 1 day. The plants are then placed in a greenhouse at about 21° C. and a relative atmospheric humidity of about 90%.

Botrytis cinerea = assay: Botrytis test (bean)/protective; format: in vivo; settings: topical, 48 h, protective, application rate 500 g/ha, evaluation 2 days after inoculation, read-out: Efficacy in %
Description: Botrytis Test (Bean)/Protective
To produce a suitable preparation of active compound, 1 part by weight of active compound is mixed with the stated amounts of solvent and emulsifier, and the concentrate is diluted with water to the desired concentration. To test for protective activity, young plants are sprayed with the preparation of active compound at the stated application rate. After the spray coating has dried on, 2 small pieces of agar colonized by Botrytis cinerea are placed onto each leaf. The inoculated plants are placed in a dark chamber at about 20° C. and 100% relative atmospheric humidity.
2 days after the inoculation, the size of the infected areas on the leaves is evaluated. 0% means an efficacy which corresponds to that of the control, whereas an efficacy of 100% means that no infection is observed.

Row | chromatographic logP (physchem; logP) | Structure (SMILES) | pest or weed control at 500 g/ha (Botrytis cinerea) [%] | also measured
1 |  | C[C@H](Nc1c(-c2ccc(F)cc2Cl)c(Cl)nc2c(C#N)cnn12)C(F)(F)F (single isomer, unassigned) [Example 1] |  | chromatographic logP (physchem; log P): 3.88
2 |  | C[C@H](Nc1c(-c2c(F)cc(F)cc2F)c(Cl)nc2c(Cl)cnn12)C(F)(F)F [Example 3, N-[3,5-dichloro-6-(2,4,6-trifluorophenyl)pyrazolo[1,5-a]pyrimidin-7-yl]-N-[(1S)-2,2,2-trifluoro-1-methylethyl]amine] |  | chromatographic logP (physchem; log P): 4.43
3 |  | CC(C)C(C)Nc1c(-c2c(F)cccc2Cl)cnc2c(C#N)cnn12 (stereo not drawn) [Example 4, 6-(2-chloro-6-fluorophenyl)-7-[(1,2-dimethylpropyl)amino)pyrazolo[1,5-a]pyrimidine-3-carbonitrile] |  | chromatographic logP (physchem; log P): 3.78
4 |  | CC(C)C(C)Nc1c(-c2ccc(F)cc2Cl)cnc2c(Cl)cnn12 (stereo not drawn) [Example 5, N-[3-chloro-6-(2-chloro-4-fluorophenyl)pyrazolo[1,5-a]pyrimidin-7-yl]-N-(1,2-dimethylpropyl)amine] |  | chromatographic logP (physchem; log P): 4.53
5 | 4.43 | CC(Nc1c(-c2ccc(F)cc2Cl)c(Cl)nc2c(C=O)cnn12)C(C)(C)C (stereo not drawn) [Example 401, 3-formyl-5-chloro-6-(2-chloro-4-fluorophenyl)-7-(1,2,2-trimethylpropylamino)pyrazolo[1,5a]pyrimidine] |  | chromatographic logP (physchem; log P): 4.43
6 | 5.48 | CO/N=C\c1cnn2c(NC(C)C(C)(C)C)c(-c3ccc(F)cc3Cl)c(Cl)nc12 (stereo not drawn) [Example 402, 3-methoximino-5-chloro-6-(2-chloro-4-fluorophenyl)-7-(1,2,2-trimethylpropylamino)pyrazolo[1,5a]pyrimidine] |  | chromatographic logP (physchem; log P): 5.48
7 |  | N#Cc1cnn2c(Cl)c(-c3ccc(F)cc3Cl)c(Cl)nc12 [Example 441, 3-cyano-5,7-dichloro-6-(2-chloro-4-fluorophenyl)pyrazolo[1,5-a]pyrimidine] |  | chromatographic logP (physchem; log P): 3.48
8 |  | Fc1cc(F)c(-c2c(Cl)nc3c(Cl)cnn3c2Cl)c(F)c1 [Example 442, 3,5,7-trichloro-6-(2,4,6-trifluorophenyl)pyrazolo[1,5-a]pyrimidine] |  | chromatographic logP (physchem; log P): 3.97
9 |  | Fc1ccc(-c2cnc3c(Cl)cnn3c2Cl)c(Cl)c1 [Example 443, 3,7-dichloro-6-(2-chloro-4-fluorophenyl)pyrazolo[1,5-a]pyrimidine] |  | chromatographic logP (physchem; log P): 3.56
10 | 4.6 | C=C(C)CN(CC)c1c(-c2c(F)cc(F)cc2F)c(Cl)nc2c(C#N)cnn12 [compound 6] |  | 
11 | 3.73 | C[C@H](Nc1c(-c2c(F)cccc2Cl)c(Cl)nc2c(C#N)cnn12)C(F)(F)F [compound 12] |  | 
12 | 4.68 | C=C(C)CN(CC)c1c(-c2c(F)cccc2Cl)c(Cl)nc2c(C#N)cnn12 [compound 13] |  | 
13 | 3.26 | N#Cc1cnn2c(N3CCOCC3)c(-c3c(F)cccc3Cl)c(Cl)nc12 [compound 14] |  | 
14 | 4.32 | N#Cc1cnn2c(N3CCCCC3)c(-c3c(F)cccc3Cl)c(Cl)nc12 [compound 21] |  | 
15 | 4.77 | CC1CCN(c2c(-c3c(F)cccc3Cl)c(Cl)nc3c(C#N)cnn23)CC1 [compound 28] |  | 
16 | 3.74 | N#Cc1cnn2c(NCC3CC3)c(-c3c(F)cccc3Cl)c(Cl)nc12 [compound 29] |  | 
17 | 3.82 | N#Cc1cnn2c(N3CCC(F)CC3)c(-c3c(F)cccc3Cl)c(Cl)nc12 [compound 34] |  | 
18 | 4.51 | CC(C)CN(C)c1c(-c2c(F)cccc2Cl)c(Cl)nc2c(C#N)cnn12 [compound 46] |  | 
19 | 3.89 | CCC(C)Nc1c(-c2c(F)cc(F)cc2F)c(Cl)nc2c(C#N)cnn12 (stereo not drawn) [compound 50] |  | 
20 | 3.54 | CC(C)Nc1c(-c2c(F)cc(F)cc2F)c(Cl)nc2c(C#N)cnn12 [compound 52] |  | 

Row | chromatographic logP (physchem; logP) | Structure (SMILES) | pest or weed control at 500 g/ha (Botrytis cinerea) [%] | also measured
21 | 4.78 | CC1CCN(c2c(-c3ccccc3Cl)c(Cl)nc3c(C#N)cnn23)CC1 [compound 95] |  | 
22 | 4.37 | CC(C)CN(C)c1c(-c2c(F)cc(F)cc2F)c(Cl)nc2c(C#N)cnn12 [compound 108] |  | 
23 | 4.24 | C=C(C)CN(C)c1c(-c2c(F)cc(F)cc2F)c(Cl)nc2c(C#N)cnn12 [compound 110] |  | 
24 | 4.51 | CC(C)CN(C)c1c(-c2ccccc2Cl)c(Cl)nc2c(C#N)cnn12 [compound 138] |  | 
25 | 3.87 | CC(C)CNc1c(-c2ccc(F)cc2F)c(Cl)nc2c(C#N)cnn12 [compound 148] |  | 
26 | 3.81 | N#Cc1cnn2c(N3CCC(F)(F)CC3)c(-c3c(F)cc(F)cc3F)c(Cl)nc12 [compound 230] |  | 
27 | 4.61 | Fc1cc(F)c(-c2c(Cl)nc3c(Cl)cnn3c2N2CCC(F)(F)CC2)c(F)c1 [compound 231] |  | 
28 |  | CC1CCN(c2c(-c3c(F)cccc3Cl)c(Cl)nc3c(C#N)cnn23)CC1 [drawing 92] |  | pest or weed control at 100 g/ha (Venturia inaequalis): 97%
29 |  | N#Cc1cnn2c(NCC3CC3)c(-c3c(F)cccc3Cl)c(Cl)nc12 [drawing 93] |  | pest or weed control at 100 g/ha (Venturia inaequalis): 100%
30 |  | C=C(C)CN(CC)c1c(-c2c(F)cc(F)cc2F)c(Cl)nc2c(C#N)cnn12 [drawing 94] |  | pest or weed control at 100 g/ha (Venturia inaequalis): 100%
31 |  | C[C@H](Nc1c(-c2c(F)cc(F)cc2F)c(Cl)nc2c(C#N)cnn12)C(F)(F)F [drawing 95] |  | pest or weed control at 100 g/ha (Venturia inaequalis): 100%
32 |  | C[C@H](Nc1c(-c2c(F)cc(F)cc2F)c(Cl)nc2c(Cl)cnn12)C(F)(F)F [drawing 96] |  | pest or weed control at 100 g/ha (Venturia inaequalis): 98%
33 |  | Fc1cc(F)c(-c2c(Cl)nc3c(Cl)cnn3c2N2CCC(F)(F)CC2)c(F)c1 [drawing 97] |  | pest or weed control at 100 g/ha (Venturia inaequalis): 100%
34 |  | CC(C)[C@@H](C)Nc1c(-c2c(F)cc(F)cc2F)c(Cl)nc2c(C#N)cnn12 [drawing 98] |  | pest or weed control at 100 g/ha (Venturia inaequalis): 100%
35 |  | CCC(C)Nc1c(-c2c(F)cc(F)cc2F)c(Cl)nc2c(C#N)cnn12 (stereo not drawn) [drawing 99] |  | pest or weed control at 100 g/ha (Venturia inaequalis): 100%
36 |  | CC(C)Nc1c(-c2c(F)cc(F)cc2F)c(Cl)nc2c(C#N)cnn12 [drawing 100] |  | pest or weed control at 100 g/ha (Venturia inaequalis): 98%
37 |  | CC(C)CN(C)c1c(-c2c(F)cc(F)cc2F)c(Cl)nc2c(C#N)cnn12 [drawing 101] |  | pest or weed control at 100 g/ha (Venturia inaequalis): 100%
38 |  | C=C(C)CN(C)c1c(-c2c(F)cc(F)cc2F)c(Cl)nc2c(C#N)cnn12 [drawing 102] |  | pest or weed control at 100 g/ha (Venturia inaequalis): 100%
39 |  | N#Cc1cnn2c(N3CCCCC3)c(-c3c(F)cccc3Cl)c(Cl)nc12 [drawing 111] | 93 | 
40 |  | CC1CCN(c2c(-c3c(F)cccc3Cl)c(Cl)nc3c(C#N)cnn23)CC1 [drawing 112] | 96 | 

Row | chromatographic logP (physchem; logP) | Structure (SMILES) | pest or weed control at 500 g/ha (Botrytis cinerea) [%] | also measured
41 |  | N#Cc1cnn2c(NCC3CC3)c(-c3c(F)cccc3Cl)c(Cl)nc12 [drawing 113] | 99 | 
42 |  | C=C(C)CN(CC)c1c(-c2c(F)cc(F)cc2F)c(Cl)nc2c(C#N)cnn12 [drawing 114] | 100 | 
43 |  | C[C@H](Nc1c(-c2c(F)cc(F)cc2F)c(Cl)nc2c(C#N)cnn12)C(F)(F)F [drawing 115] | 99 | 
44 |  | C[C@H](Nc1c(-c2c(F)cc(F)cc2F)c(Cl)nc2c(Cl)cnn12)C(F)(F)F [drawing 116] | 100 | 
45 |  | Fc1cc(F)c(-c2c(Cl)nc3c(Cl)cnn3c2N2CCC(F)(F)CC2)c(F)c1 [drawing 117] | 95 | 
46 |  | CC(C)[C@@H](C)Nc1c(-c2c(F)cc(F)cc2F)c(Cl)nc2c(C#N)cnn12 [drawing 118] | 96 | 
47 |  | CCC(C)Nc1c(-c2c(F)cc(F)cc2F)c(Cl)nc2c(C#N)cnn12 (stereo not drawn) [drawing 119] | 97 | 
48 |  | CC(C)Nc1c(-c2c(F)cc(F)cc2F)c(Cl)nc2c(C#N)cnn12 [drawing 120] | 93 | 
49 |  | CC(C)CN(C)c1c(-c2c(F)cc(F)cc2F)c(Cl)nc2c(C#N)cnn12 [drawing 121] | 100 | 
50 |  | C=C(C)CN(C)c1c(-c2c(F)cc(F)cc2F)c(Cl)nc2c(C#N)cnn12 [drawing 122] | 100 | 
51 |  | CC(Nc1c(-c2ccc(F)cc2Cl)c(Cl)nc2c(C#N)cnn12)C(F)(F)F (stereo not drawn) [drawing 123] | 99 | 
52 |  | C[C@H](Nc1c(-c2ccc(F)cc2Cl)c(Cl)nc2c(C#N)cnn12)C(F)(F)F [drawing 124] | 100 | 
53 |  | CC(C)CN(C)c1c(-c2ccccc2Cl)c(Cl)nc2c(C#N)cnn12 [drawing 125] | 100 | 
54 |  | CC1CCN(c2c(-c3ccccc3Cl)c(Cl)nc3c(C#N)cnn23)CC1 [drawing 126] | 95 | 
55 |  | N#Cc1cnn2c(N3CCC(F)CC3)c(-c3c(F)cccc3Cl)c(Cl)nc12 [drawing 127] | 94 | 
56 |  | CC(C)CN(C)c1c(-c2c(F)cccc2Cl)c(Cl)nc2c(C#N)cnn12 [drawing 128] | 99 | 
57 |  | C=C(C)CN(CC)c1c(-c2c(F)cccc2Cl)c(Cl)nc2c(C#N)cnn12 [drawing 129] | 100 | 
58 |  | C[C@H](Nc1c(-c2c(F)cccc2Cl)c(Cl)nc2c(C#N)cnn12)C(F)(F)F [drawing 130] | 100 | 

Row | Structure (SMILES) | chromatographic logP (physchem; logP) | pest or weed control at 500 g/ha (Botrytis cinerea) [%] | also measured
59 | C[C@H](Nc1c(-c2c(F)cc(F)cc2F)c(Cl)nc2c(C#N)cnn12)C(F)(F)F [compound 7] | 3.69 |  | 
60 | N#Cc1cnn2c(NCC3CC3)c(-c3c(F)cc(F)cc3F)c(Cl)nc12 [compound 54] | 3.63 |  | 
61 | C[C@H](Nc1c(-c2ccccc2F)c(Cl)nc2c(C#N)cnn12)C(F)(F)F [compound 74] | 3.49 |  | 
